Experimental data as given in patent publication US20080161419A1, “Prophylactic Antimigraine Agents” (priority 2004, published 2008).

Key:
[1] = tested on: migraine model of guinea pig; assay: Preventive effect in guinea pig migraine model (leaked protein from dural blood vessel caused by 5-HT); format: in vivo; settings: for leakage of the protein: 10 mg/kg or 30 mg/kg of oral administration; for amount of leaked protein (fluorescence intensity per mg dura): 3 mg/kg, intraperitoneal administration, 5-HT i.v.
Protocol: In this test system, migraine preventive effect was evaluated by measuring this leaked protein in the presence of a compound to be tested, and this was carried out by partially modifying the method described in Rachel A. Spokes and Vicki C. Middlefell, European Journal of Pharmacology (1995) 281, 75-79.
Hartley male guinea pig (250-350 g) was anesthetized by peritoneal administration (i.p.) of urethane (1.5 g/kg). By applying simple cannulation to a saphena, 50 mg/kg of a fluorescent protein (FITC-BSA) was intravenously administered (i.v.) and 5 minutes thereafter, physiological saline or […] of 5-HT was intravenously administered. By carrying out perfusion with physiological saline 15 minutes thereafter, blood was washed out. […] By detaching the skull, dura mater was took out and incubated at 37° C. for 16 hours in an Eppendorf tube in the presence of physiological saline of pH 11. Centrifugation was carried out, and the supernatant was dispensed into a plate. Fluorescence intensity was measured using a fluorescence plate reader (excitation wavelength 485 nm, […] 530 nm). By measuring dura mater weight, fluorescence intensity per mg dural protein was calculated.
Values of the fluorescence intensity measured at the time of the administration of each compound and at the time of no administration are shown in FIG. 1 to FIG. 4. […] The control indicates fluorescence intensity at the time of no addition of 5-HT, namely the reference value.

human 5-HT7 receptor = biological target: T1, human 5-HT7 receptor (Homo sapiens, UniProt P34969); assay: Binding test of 5-HT7 receptor; settings: [3H]5-HT, human 5-HT7 receptor expressing CHO cell membrane
T1 construct: expressed in transfected cells; host or cells: CHO
Protocol: Cultured CHO cells expressing human 5-HT7 receptor were washed with PBS(−). The cells were scraped in the presence of PBS(−), and the cells were recovered by centrifugation (1,000 rpm, 10 min, 4° C.). They were homogenized using Polytron (TA 10-TS) in the presence of 5 mM Tris-HCl (pH 7.4) buffer and centrifuged (40,000×g, 10 min, 4° C.). They were suspended using a homogenizer in the presence of 50 mM Tris-HCl (pH 7.4) buffer. They were subjected to centrifugation (40,000×g, 10 min, 4° C.), suspended in 50 mM Tris-HCl (pH 7.4) and stored at −80° C.
A total volume of 500 μl containing 50 mM Tris-HCl-4 mM CaCl2 (pH 7.4) buffer, the human 5-HT7 receptor expressing CHO cell membrane preparation and a radio ligand [^3H]5-HT (3.40 TBq/mmol) was incubated at 25° C. for 1 hour. The compound was dissolved in 100% DMSO and diluted to respective concentrations. Nonspecific binding was defined as the binding quantity in the presence of 10 μM metergoline, and the result of subtracting the nonspecific binding quantity from the total binding quantity was defined as the specific binding quantity. This was mixed with 4 ml of 50 mM Tris-HCl buffer (pH 7.4) and filtered under a reduced pressure using a GF/B glass filter, and the filter was washed (4 ml×3) with the same buffer. The glass filter was soaked in 5 ml of a liquid scintillator (Aquasol-2) and the radioactivity was measured using a liquid scintillation counter. Concentration of the compound which inhibits 50% of the receptor binding, IC50 value, was obtained by nonlinear regression analysis using SAS (ver. 6.11), and the Ki value which represents its affinity for the receptor was calculated using the formula of Cheng & Prussoff; Ki=IC50/(1+[L]/[Kd]) ([L]: ligand concentration, [Kd]: dissociation constant).

5-HT2B receptor = settings: against 5-HT1A, 5-HT1B, 5-HT2A, 5-HT2C, 5-HT3, 5-HT6, 5-HT7, α1, M1 and D2 receptors; cited from earlier work
human 5-HT2B receptor = biological target: T2, human 5-HT2B receptor (Homo sapiens, UniProt P41595); assay: Binding test of 5-HT2B receptor; settings: [3H]Mesulergine, human 5-HT2B receptor expressing HEK293-EBNA cell membrane
T2 construct: expressed in transfected cells; host or cells: HEK293-EBNA
Protocol: HEK293-ENBA cell was used as the gene transferring cell.
Cultured HEK293-EBNA cells expressing human 5-HT2B receptor were washed with PBS(−). The cells were scraped in the presence of PBS(−), and the cells were recovered by centrifugation (1,000 rpm, 10 min, 4° C.). They were homogenized using Polytron (PTA 10-TS) in the presence of 5 mM Tris-HCl (pH 7.4) buffer and centrifuged (40,000×g, 10 min, 4° C.). They were suspended using a homogenizer in the presence of 50 mM Tris-HCl (pH 7.4) buffer. They were subjected to centrifugation (40,000×g, 10 min. 4° C.), suspended in 50 mM Tris-HCl (H 7.4) and stored at −80° C.
A total volume of 500 μl containing 50 mM Tris-HCl-4 mM CaCl2 (pH 7.4) buffer, the human 5-HT2B receptor expressing HEK293-EBNA cell membrane preparation and a radio ligand [^3H]Mesulergine (3.1 TBq/mmol) was incubated at 25° C. for 1 hour. The compound was dissolved in 100%1/DMSO and diluted to respective concentrations. Nonspecific binding was defined as the binding quantity in the presence of 1 μM ritanserin, and the result of subtracting the nonspecific binding quantity from the total binding quantity was defined as the specific binding quantity. […] The glass filter was soaked in 5 ml of a liquid scintillator (Aquasol-2) and the radioactivity was measured using a liquid scintillation counter. […]

5-HT1A receptor = biological target: T3, 5-HT1A receptor (Homo sapiens, UniProt P08908); assay: Affinity for other receptors: 5-HT1A; format: binding
T3 sequence (P08908 1-422): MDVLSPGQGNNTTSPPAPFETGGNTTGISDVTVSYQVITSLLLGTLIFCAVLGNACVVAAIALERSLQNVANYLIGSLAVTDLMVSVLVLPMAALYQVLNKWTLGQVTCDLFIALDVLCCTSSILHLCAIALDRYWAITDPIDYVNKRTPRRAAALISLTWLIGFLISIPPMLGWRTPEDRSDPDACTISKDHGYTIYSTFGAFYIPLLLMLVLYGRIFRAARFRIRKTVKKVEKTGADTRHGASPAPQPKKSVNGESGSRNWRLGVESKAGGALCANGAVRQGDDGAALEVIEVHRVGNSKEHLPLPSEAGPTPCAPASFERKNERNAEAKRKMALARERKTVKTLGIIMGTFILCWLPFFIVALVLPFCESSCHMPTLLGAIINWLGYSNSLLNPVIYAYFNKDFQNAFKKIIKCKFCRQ
Source text: (§1) Affinity of the compound of Preparation 3 for 5-HT1A, 5-HT1B, 5-HT2A, 5-HT2C, 5-HT3, 5-HT4, 5-HT6, α1, M1 and D2 receptors was verified using conventionally known techniques (Journal of Neurochemistry (1986) 47, 529-540; Molecular Pharmacology (1982) 21, 301-314; European Journal of Pharmacology (1985) 106, 539-546; Journal of Pharmacology Experimental Therapy (1992) 263, 1127-1132; British Journal of Pharmacology (1993) 109, 618-624; Molecular Pharmacology (1993) 43, 320-327; Molecular Pharmacology (1989) 35, 324-330; Cellular Molecular Neurobiology (1988) 8, 181-191; European Journal of Pharmacology (1988) 173, 177-182).

5-HT1B receptor = 5-HT1B receptor (Homo sapiens, UniProt P28222); assay: Affinity for other receptors: 5-HT1B; format: binding
Source text: as §1

5-HT2A receptor = 5-HT2A receptor (Homo sapiens, UniProt P28223); assay: Affinity for other receptors: 5-HT2A; format: binding
Source text: as §1

5-HT2C receptor = biological target: T4, 5-HT2C receptor (Homo sapiens, UniProt P28335); assay: Affinity for other receptors: 5-HT2C; format: binding
T4 sequence (P28335 33-458): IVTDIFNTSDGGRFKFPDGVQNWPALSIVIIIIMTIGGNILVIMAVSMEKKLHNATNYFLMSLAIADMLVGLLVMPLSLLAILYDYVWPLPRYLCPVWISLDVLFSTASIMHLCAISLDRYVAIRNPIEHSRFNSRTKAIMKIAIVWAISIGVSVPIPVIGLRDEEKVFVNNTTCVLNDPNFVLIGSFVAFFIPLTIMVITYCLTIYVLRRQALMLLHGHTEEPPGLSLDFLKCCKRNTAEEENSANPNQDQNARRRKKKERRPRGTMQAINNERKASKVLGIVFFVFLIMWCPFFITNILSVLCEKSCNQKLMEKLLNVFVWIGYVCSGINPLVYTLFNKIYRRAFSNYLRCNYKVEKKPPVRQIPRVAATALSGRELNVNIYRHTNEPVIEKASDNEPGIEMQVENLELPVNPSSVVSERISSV
Source text: as §1

5-HT3 receptor = biological target: T5, 5-HT3 receptor (Homo sapiens, UniProt P46098); assay: Affinity for other receptors: 5-HT3; format: binding
T5 sequence (P46098 24-478): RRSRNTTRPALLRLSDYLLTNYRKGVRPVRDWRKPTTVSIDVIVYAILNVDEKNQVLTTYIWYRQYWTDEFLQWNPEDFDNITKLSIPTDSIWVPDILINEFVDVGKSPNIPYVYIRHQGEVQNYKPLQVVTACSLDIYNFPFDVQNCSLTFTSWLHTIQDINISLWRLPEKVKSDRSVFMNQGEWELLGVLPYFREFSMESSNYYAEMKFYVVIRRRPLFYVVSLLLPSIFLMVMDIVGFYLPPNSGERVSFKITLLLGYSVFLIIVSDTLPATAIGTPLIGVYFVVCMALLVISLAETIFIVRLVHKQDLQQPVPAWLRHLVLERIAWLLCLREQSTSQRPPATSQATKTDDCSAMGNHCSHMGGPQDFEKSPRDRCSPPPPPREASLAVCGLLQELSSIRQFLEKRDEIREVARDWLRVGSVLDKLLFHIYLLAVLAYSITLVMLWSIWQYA
Source text: as §1

5-HT4 receptor = 5-HT4 receptor (Homo sapiens, UniProt Q13639); assay: Affinity for other receptors: 5-HT4; format: binding
Source text: as §1

5-HT6 receptor = 5-HT6 receptor (Homo sapiens, UniProt P50406); assay: Affinity for other receptors: 5-HT6; format: binding
Source text: as §1

α1 receptor = assay: Affinity for other receptors: α1; format: binding
Source text: as §1

M1 receptor = biological target: T6, M1 receptor (Homo sapiens, UniProt P11229); assay: Affinity for other receptors: M1; format: binding
T6 sequence (P11229 1-460): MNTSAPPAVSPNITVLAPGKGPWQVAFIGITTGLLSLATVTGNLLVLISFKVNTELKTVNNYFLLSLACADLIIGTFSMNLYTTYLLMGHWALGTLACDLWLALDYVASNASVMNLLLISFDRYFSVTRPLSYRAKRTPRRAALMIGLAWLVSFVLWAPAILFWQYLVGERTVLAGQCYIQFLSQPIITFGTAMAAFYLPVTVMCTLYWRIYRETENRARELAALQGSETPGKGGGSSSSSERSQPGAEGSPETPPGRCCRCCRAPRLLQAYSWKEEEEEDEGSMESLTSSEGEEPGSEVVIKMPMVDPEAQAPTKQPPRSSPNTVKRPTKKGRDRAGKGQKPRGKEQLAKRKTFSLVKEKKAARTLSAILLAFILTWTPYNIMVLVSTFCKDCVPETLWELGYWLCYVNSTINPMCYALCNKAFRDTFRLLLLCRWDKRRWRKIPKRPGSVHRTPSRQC
Source text: as §1

D2 receptor = D2 receptor (Homo sapiens, UniProt P14416); assay: Affinity for other receptors: D2; format: binding
Source text: as §1

T1 sequence (P34969 whole entry): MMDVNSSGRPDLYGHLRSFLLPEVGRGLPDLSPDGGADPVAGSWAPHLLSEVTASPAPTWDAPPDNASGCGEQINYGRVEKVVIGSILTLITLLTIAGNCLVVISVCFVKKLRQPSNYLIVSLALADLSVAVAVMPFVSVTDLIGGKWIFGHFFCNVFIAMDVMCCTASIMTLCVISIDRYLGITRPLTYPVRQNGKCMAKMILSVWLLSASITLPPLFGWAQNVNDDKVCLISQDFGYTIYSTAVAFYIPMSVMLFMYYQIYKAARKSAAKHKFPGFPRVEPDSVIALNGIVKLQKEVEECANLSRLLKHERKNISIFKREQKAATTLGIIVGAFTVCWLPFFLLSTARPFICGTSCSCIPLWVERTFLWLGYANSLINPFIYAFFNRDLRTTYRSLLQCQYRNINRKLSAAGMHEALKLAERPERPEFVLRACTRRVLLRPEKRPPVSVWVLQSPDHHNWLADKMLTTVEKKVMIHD
5-HT2A receptor, sequence (P28223 whole entry): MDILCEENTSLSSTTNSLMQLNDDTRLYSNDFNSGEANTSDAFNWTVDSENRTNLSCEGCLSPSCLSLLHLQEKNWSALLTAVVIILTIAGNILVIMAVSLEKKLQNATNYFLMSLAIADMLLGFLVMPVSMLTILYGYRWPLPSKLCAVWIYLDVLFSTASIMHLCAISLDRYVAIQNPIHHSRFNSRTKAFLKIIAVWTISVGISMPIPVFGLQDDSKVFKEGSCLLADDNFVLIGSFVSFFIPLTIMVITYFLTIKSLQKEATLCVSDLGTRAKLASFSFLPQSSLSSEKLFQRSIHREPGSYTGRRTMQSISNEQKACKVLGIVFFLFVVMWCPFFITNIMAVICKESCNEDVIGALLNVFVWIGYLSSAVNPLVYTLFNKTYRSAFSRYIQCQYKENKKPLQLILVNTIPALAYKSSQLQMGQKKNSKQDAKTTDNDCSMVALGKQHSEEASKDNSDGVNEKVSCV
T2 sequence (P41595 whole entry): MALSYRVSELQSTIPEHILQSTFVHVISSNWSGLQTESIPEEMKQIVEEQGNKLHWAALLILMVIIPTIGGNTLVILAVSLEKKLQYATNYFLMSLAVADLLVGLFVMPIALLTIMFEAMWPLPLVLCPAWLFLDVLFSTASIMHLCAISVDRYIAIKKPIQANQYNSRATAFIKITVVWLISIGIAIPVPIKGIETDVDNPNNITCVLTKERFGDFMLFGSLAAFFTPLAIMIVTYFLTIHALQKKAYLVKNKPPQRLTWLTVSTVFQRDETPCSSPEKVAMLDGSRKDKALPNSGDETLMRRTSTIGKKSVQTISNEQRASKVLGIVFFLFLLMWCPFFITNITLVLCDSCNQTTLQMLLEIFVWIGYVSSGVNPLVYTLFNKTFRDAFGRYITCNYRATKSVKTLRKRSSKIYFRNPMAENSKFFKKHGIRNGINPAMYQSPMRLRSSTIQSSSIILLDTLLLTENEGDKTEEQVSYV
5-HT1B receptor, sequence (P28222 whole entry): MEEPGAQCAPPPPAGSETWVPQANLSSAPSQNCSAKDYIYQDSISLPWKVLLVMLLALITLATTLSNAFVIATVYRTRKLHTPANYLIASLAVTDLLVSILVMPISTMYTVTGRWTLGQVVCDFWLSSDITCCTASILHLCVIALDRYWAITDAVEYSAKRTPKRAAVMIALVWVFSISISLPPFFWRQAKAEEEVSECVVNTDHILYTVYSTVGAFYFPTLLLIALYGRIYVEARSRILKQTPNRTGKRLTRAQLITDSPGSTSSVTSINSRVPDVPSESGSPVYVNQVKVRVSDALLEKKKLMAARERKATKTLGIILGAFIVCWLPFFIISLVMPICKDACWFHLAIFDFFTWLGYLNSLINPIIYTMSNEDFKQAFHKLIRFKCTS
5-HT6 receptor, sequence (P50406 whole entry): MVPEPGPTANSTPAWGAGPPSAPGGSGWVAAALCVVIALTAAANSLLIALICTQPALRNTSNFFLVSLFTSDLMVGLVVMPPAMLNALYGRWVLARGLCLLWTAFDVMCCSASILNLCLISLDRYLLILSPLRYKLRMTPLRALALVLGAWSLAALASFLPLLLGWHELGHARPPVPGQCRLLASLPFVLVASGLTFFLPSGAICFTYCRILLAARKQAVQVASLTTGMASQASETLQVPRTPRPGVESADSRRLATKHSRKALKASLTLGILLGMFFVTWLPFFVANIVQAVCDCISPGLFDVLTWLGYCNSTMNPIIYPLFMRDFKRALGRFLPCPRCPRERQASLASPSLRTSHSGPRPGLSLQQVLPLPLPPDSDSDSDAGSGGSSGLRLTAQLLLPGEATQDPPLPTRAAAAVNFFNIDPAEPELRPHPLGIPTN
D2 receptor, sequence (P14416 whole entry): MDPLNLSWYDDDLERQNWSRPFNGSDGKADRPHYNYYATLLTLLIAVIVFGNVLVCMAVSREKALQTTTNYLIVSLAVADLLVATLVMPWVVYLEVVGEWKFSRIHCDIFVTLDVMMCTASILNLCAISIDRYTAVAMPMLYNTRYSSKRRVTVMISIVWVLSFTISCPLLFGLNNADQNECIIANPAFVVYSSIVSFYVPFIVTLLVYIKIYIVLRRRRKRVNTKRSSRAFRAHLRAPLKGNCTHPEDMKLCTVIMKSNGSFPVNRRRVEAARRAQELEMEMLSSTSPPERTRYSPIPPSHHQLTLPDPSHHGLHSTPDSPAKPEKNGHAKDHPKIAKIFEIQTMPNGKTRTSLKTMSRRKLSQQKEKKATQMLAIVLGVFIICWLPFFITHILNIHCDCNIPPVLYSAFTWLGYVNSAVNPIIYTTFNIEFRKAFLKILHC
5-HT4 receptor, sequence (Q13639 whole entry): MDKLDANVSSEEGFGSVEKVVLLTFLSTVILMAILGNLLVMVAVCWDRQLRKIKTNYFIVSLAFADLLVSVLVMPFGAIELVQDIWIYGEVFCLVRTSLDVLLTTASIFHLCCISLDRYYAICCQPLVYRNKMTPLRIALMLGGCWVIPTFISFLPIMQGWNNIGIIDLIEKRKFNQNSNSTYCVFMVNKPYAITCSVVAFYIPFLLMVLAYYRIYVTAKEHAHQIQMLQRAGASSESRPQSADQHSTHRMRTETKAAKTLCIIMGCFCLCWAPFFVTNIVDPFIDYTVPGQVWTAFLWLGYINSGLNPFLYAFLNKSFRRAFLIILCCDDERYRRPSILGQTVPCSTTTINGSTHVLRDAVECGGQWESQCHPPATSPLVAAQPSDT

## Cl.NC(N)=NC(=O)c1ccc2c(c1)C1(CCCO1)c1ccccc1-2 (racemic) [Preparation 60]
[1]
  leakage of the protein: almost completely suppressed leakage of the protein

## COC1(C)c2cc(C(=O)N=C(N)N)ccc2-c2c(F)cccc21.Cl (racemic) [Preparation 87]
[1]
  leakage of the protein: almost completely suppressed leakage of the protein

## CCC1(OC)c2ccccc2-c2ccc(C(=O)N=C(N)N)cc21.Cl (racemic) [Preparation 72]
[1]
  leakage of the protein: almost completely suppressed leakage of the protein

## Cl.NC(N)=NC(=O)c1ccc2c(c1)C1(CCCO1)c1ccccc1-2 (single isomer, unassigned) [Preparation 60b]
[1]
  leakage of the protein: almost completely suppressed leakage of the protein

## NC(N)=NC(=O)c1ccc2c(c1)C(=NO)c1c(CO)cccc1-2 [Preparation 7, (9EZ)-N-(diaminomethylene)-9-hydroxyimino-8-hydroxymethyl-9H-fluorene-2-carboxamide]
Human 5-HT7 receptor
  Ki: 0.4 to 310 nM

## Cl.NC(N)=NC(=O)c1ccc2c(c1)C1(CCCO1)c1ccccc1-2 (single isomer, unassigned) [Preparation 60a]
[1]
  leakage of the protein: almost completely suppressed leakage of the protein

## CC(C)c1cc(-c2ccc(F)c3ccccc23)nc(N)n1 [RS-127445, 2-amino-4-(4-fluoronaphth-1-yl)-6-isopropylpyrimidine, reference compound]
[1]
  amount of leaked protein (fluorescence intensity per mg dura): showed an effect to reduce amount of the leaked protein
[1]; dose increased from 3 mg/kg to 10 mg/kg, intraperitoneal
  amount of leaked protein versus reference value: did Dot reduced to the reference value
[1]; intraperitoneal
  minimum amount showing maximum drug effect in this model: 3 mg/kg
5-HT2B receptor
  5-HT2B receptor selectivity: 1000 times

## CC1CCN(CC[C@H]2CCCN2S(=O)(=O)c2cccc(O)c2)CC1 [SB-269970, (R)-3-(2-(2-(4-methylpiperidin-1-yl)ethyl)pyrrolidine-1-sulfonyl)phenol, reference compound]
[1]; dose increased from 3 mg/kg to 30 mg/kg, intraperitoneal
  amount of leaked protein versus reference value: did not reduced the amount of leaked protein to the reference value
[1]; from 10 mg/kg, intraperitoneal
  amount of leaked protein: showed the effect
[1]; intraperitoneal
  minimum amount showing maximum drug effect in this model: 10 mg/kg

## NC(N)=NC(=O)c1ccc2c(c1)C(Cl)c1ccccc1-2 (centres unmarked) [Preparation 4, 9-chloro-N-(diaminomethylene)-9H-fluorene-2-carboxamide]
Human 5-HT7 receptor
  Ki: 0.4 to 310 nM

## Cl.NC(N)=NC(=O)c1ccc2c(c1)C(O)c1ccccc1-2 (centres unmarked) [Preparation 3, N-(diaminomethylene)-9-hydroxy-9H-fluorene-2-carboxamide hydrochloride]
Human 5-HT2B receptor
  Ki: 1.8 nM
Human 5-HT7 receptor
  Ki: 17.6 nM
5-HT1A receptor
  IC50: ≥ 1000 nM
5-HT1B receptor
  IC50: ≥ 1000 nM
5-HT2A receptor
  IC50: ≥ 1000 nM
5-HT2C receptor
  IC50: ≥ 1000 nM
5-HT3 receptor
  IC50: ≥ 1000 nM
5-HT4 receptor
  IC50: ≥ 1000 nM
5-HT6 receptor
  IC50: ≥ 1000 nM
α1 receptor
  IC50: ≥ 1000 nM
M1 receptor
  IC50: ≥ 1000 nM
D2 receptor
  IC50: ≥ 1000 nM
[1]
  amount of leaked protein (fluorescence intensity per mg dura): almost completely suppressed the amount of leaked protein

## COC1(C)c2ccccc2-c2ccc(C(=O)N=C(N)N)cc21.Cl (racemic) [Preparation 71]
[1]
  leakage of the protein: almost completely suppressed leakage of the protein

## CC1(O)c2cc(C(=O)N=C(N)N)ccc2-c2c(F)cccc21.Cl (single isomer, unassigned) [Preparation 78b]
[1]
  leakage of the protein: almost completely suppressed leakage of the protein
